Where “and” joins values, the source holds several entries; their conditions need not be identical. Identical values can stand only once.
Legend:
[1] = tested on: Pseudomonas aeruginosa (ATCC27853); test: Microdilution MIC assay (CLSI-based), P. aeruginosa; assay type: cell-based; settings: Pseudomonas aeruginosa, ATCC27853, 20 h, 20 hours incubation at 35-37° C., MHB; read-out: Minimum inhibitory concentration P. aeruginosa ATCC27853
Summary of the method: (§1)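 Broth microdilution per modified CLSI guidelines in Mueller Hinton broth, 200 μL, inoculum ca. 5×10^5 CFU/mL; compounds tested as salts, twofold dilutions from 0.2 mg/mL, in triplicate. MIC determined from OD at 620 nm after incubation.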

CHO-K1 cells = test: WST1 cytotoxicity test; assay type: cell-based, Chinese hamster; settings: Cricetulus griseus, CHO-K1, 24 h, WST1, 24 hours at 37° C.; read-out: IC50 CHO
Summary of the method: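 CHO-K1 cells pre-cultured 24 h, then exposed 24 h at 37 °C to increasing compound concentrations. Viability read as WST-1 formazan absorbance at 450 nm after 20 min; dose-response fitted by nonlinear regression.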

[2] = tested on: Escherichia coli (ATCC28922); test: Microdilution MIC assay (CLSI-based), E. coli; assay type: cell-based; settings: Escherichia coli, ATCC28922, 20 h, 20 hours incubation at 35-37° C., MHB; read-out: Minimum inhibitory concentration E. coli ATCC28922
Summary of the method: as §1

[3] = tested on: Staphylococcus aureus (ATCC25923); test: Microdilution MIC assay (CLSI-based), S. aureus; assay type: cell-based; settings: Staphylococcus aureus, ATCC25923, 20 h, 20 hours incubation at 35-37° C., MHB; read-out: Minimum inhibitory concentration S. aureus ATCC25923
Summary of the method: as §1

[4] = tested on: Enterococcus faecalis (ATCC29212); test: Microdilution MIC assay (CLSI-based), E. faecalis; assay type: cell-based; settings: Enterococcus faecalis, ATCC29212, 20 h, 20 hours incubation at 35-37° C., MHB; read-out: Minimum inhibitory concentration E. faecalis ATCC29212
Summary of the method: as §1

| Structure (SMILES) | MIC [1] | IC50 (CHO-K1 cells) | MIC [2] | MIC [3] | MIC [4] |
| --- | --- | --- | --- | --- | --- |
| COC(=O)[C@@H](Cc1ccccc1)NC(=O)CC[C@@H](C)[C@H]1CCC2C3C(CC[C@@]21C)[C@@]1(C)CC[C@H](NCCCNCCCN)C[C@H]1C[C@H]3O (stereo partly drawn) [Compound S028, methyl ((4R)-4-((3S,5S,7R,10S,13R,17R)-3-((3-((3-aminopropyl)amino)propyl)amino)-7-hydroxy-10,13-dimethylhexadecahydro-1H-cyclopenta[a]phenanthren-17-yl)pentanoyl)-D-phenylalaninate] | 50 µM and 32 µg/mL | 54.6 µM and 36.4 µg/mL | 6.25 µM and 4 µg/mL | 12.5 µM and 8 µg/mL | 12.5 µM and 8 µg/mL |
| COC(=O)[C@H](Cc1ccccc1)NC(=O)CC[C@@H](C)[C@H]1CCC2C3C(CC[C@@]21C)[C@@]1(C)CC[C@H](NCCCNCCNCCCN)C[C@H]1C[C@H]3O (stereo partly drawn) [Compound S029, methyl ((4R)-4-((3S,5S,7R,10S,13R,17R)-3-((3-((2-((3-aminopropyl)amino)ethyl)amino)propyl)amino)-7-hydroxy-10,13-dimethylhexadecahydro-1H-cyclopenta[a]phenanthren-17-yl)pentanoyl)-L-phenylalaninate] | 50 µM and 32 µg/mL | 47.8 µM and 33.9 µg/mL | 50 µM and 32 µg/mL | 12.5 µM and 8 µg/mL | 12.5 µM and 8 µg/mL |
| COC(=O)[C@H](Cc1ccccc1)NC(=O)CC[C@@H](C)[C@H]1CCC2C3C(CC[C@@]21C)[C@@]1(C)CC[C@H](NCCCCN)C[C@H]1C[C@H]3O (stereo partly drawn) [Compound S030, methyl ((4R)-4-((3S,5S,7R,10S,13R,17R)-3-((4-aminobutyl)amino)-7-hydroxy-10,13-dimethylhexadecahydro-1H-cyclopenta[a]phenanthren-17-yl)pentanoyl)-L-phenylalaninate] | > 200 µM and > 124 µg/mL | > 500 µM and > 311 µg/mL | 50 µM and 32 µg/mL | 100 µM and 64 µg/mL | 200 µM and 124 µg/mL |
| COC(=O)[C@H](Cc1ccccc1)NC(=O)CC[C@@H](C)[C@H]1CCC2C3C(CC[C@@]21C)[C@@]1(C)CC[C@H](NCCCN(C)CCCN)C[C@H]1C[C@H]3O (stereo partly drawn) [Compound S031, methyl ((4R)-4-((3S,5S,7R,10S,13R,17R)-3-((3-((3-aminopropyl)(methyl)amino)propyl)amino)-7-hydroxy-10,13-dimethylhexadecahydro-1H-cyclopenta[a]phenanthren-17-yl)pentanoyl)-L-phenylalaninate] | 25 µM and 16 µg/mL | 84.5 µM and 57.6 µg/mL | 12.5 µM and 8 µg/mL | 6.25 µM and 4 µg/mL | 25 µM and 16 µg/mL |
| COC(=O)[C@H](C)NC(=O)CC[C@@H](C)[C@H]1CCC2C3C(CC[C@@]21C)[C@@]1(C)CC[C@H](NCCCNCCNCCCN)C[C@H]1C[C@H]3O (stereo partly drawn) [Compound S034, methyl ((4R)-4-((3S,5S,7R,10S,13R,17R)-3-((3-((2-((3-aminopropyl)amino)ethyl)amino)propyl)amino)-7-hydroxy-10,13-dimethylhexadecahydro-1H-cyclopenta[a]phenanthren-17-yl)pentanoyl)-L-alaninate] | 100 µM and 64 µg/mL | 266 µM and 168 µg/mL | 50 µM and 32 µg/mL | 50 µM and 32 µg/mL | 6.25 µM and 4 µg/mL |
| COC(=O)[C@H](CC(C)C)NC(=O)CC[C@@H](C)[C@H]1CCC2C3C(CC[C@@]21C)[C@@]1(C)CC[C@H](NCCCNCCNCCCN)C[C@H]1C[C@H]3O (stereo partly drawn) [Compound S035, methyl ((4R)-4-((3S,5S,7R,10S,13R,17R)-3-((3-((2-((3-aminopropyl)amino)ethyl)amino)propyl)amino)-7-hydroxy-10,13-dimethylhexadecahydro-1H-cyclopenta[a]phenanthren-17-yl)pentanoyl)-L-leucinate] | 12.5 µM and 8 µg/mL | 45.2 µM and 30.6 µg/mL | 12.5 µM and 8 µg/mL | 12.5 µM and 8 µg/mL | 12.5 µM and 8 µg/mL |
| COC(=O)[C@H](CC(C)C)NC(=O)CC[C@@H](C)[C@H]1CCC2C3C(CC[C@@]21C)[C@@]1(C)CC[C@H](NCCCNCCCCNCCCN)C[C@H]1C[C@H]3O (stereo partly drawn) [Compound S036, methyl ((4R)-4-((3S,5S,7R,10S,13R,17R)-3-((3-((4-((3-aminopropyl)amino)butyl)amino)propyl)amino)-7-hydroxy-10,13-dimethylhexadecahydro-1H-cyclopenta[a]phenanthren-17-yl)pentanoyl)-L-leucinate] | 12.5 µM and 8 µg/mL | 50.5 µM and 35.6 µg/mL | 6.25 µM and 4 µg/mL | 50 µM and 32 µg/mL | 6.25 µM and 4 µg/mL |
| COC(=O)[C@H](Cc1ccccc1)NC(=O)CC[C@@H](C)[C@H]1CCC2C3C(CC[C@@]21C)[C@@]1(C)CC[C@H](NCCCN(CCCN)CCCN)C[C@H]1C[C@H]3O (stereo partly drawn) [Compound S037, methyl ((4R)-4-((3S,5S,7R,10S,13R,17R)-3-((3-(bis(3-aminopropyl)amino)propyl)amino)-7-hydroxy-10,13-dimethylhexadecahydro-1H-cyclopenta[a]phenanthren-17-yl)pentanoyl)-L-phenylalaninate] | 25 µM and 16 µg/mL | 127 µM and 91.7 µg/mL | 6.25 µM and 4 µg/mL | 6.25 µM and 4 µg/mL | 6.25 µM and 4 µg/mL |
| COC(=O)[C@H](C)NC(=O)CC[C@@H](C)[C@H]1CCC2C3C(CC[C@@]21C)[C@@]1(C)CC[C@H](NCCCNCCCCNCCCN)C[C@H]1C[C@H]3O (stereo partly drawn) [Compound S038, methyl ((4R)-4-((3S,5S,7R,10S,13R,17R)-3-((3-((4-((3-aminopropyl)amino)butyl)amino)propyl)amino)-7-hydroxy-10,13-dimethylhexadecahydro-1H-cyclopenta[a]phenanthren-17-yl)pentanoyl)-L-alaninate] | 12.5 µM and 8 µg/mL | 45 µM and 29.8 µg/mL | 6.25 µM and 4 µg/mL | 3.13 µM and 2 µg/mL | 6.25 µM and 4 µg/mL |
| COC(=O)[C@H](Cc1ccc(O)cc1)NC(=O)CC[C@@H](C)[C@H]1CCC2C3C(CC[C@@]21C)[C@@]1(C)CC[C@H](NCCCNCCCN)C[C@H]1C[C@H]3O (stereo partly drawn) [Compound S040, methyl ((4R)-4-((3S,5S,7R,10S,13R,17R)-3-((3-((3-aminopropyl)amino)propyl)amino)-7-hydroxy-10,13-dimethylhexadecahydro-1H-cyclopenta[a]phenanthren-17-yl)pentanoyl)-L-tyrosinate] | 50 µM and 32 µg/mL | 155 µM and 106 µg/mL | 50 µM and 32 µg/mL | 25 µM and 16 µg/mL | 25 µM and 16 µg/mL |
| COC(=O)[C@@H](NC(=O)CC[C@@H](C)[C@H]1CCC2C3C(CC[C@@]21C)[C@@]1(C)CC[C@H](NCCCCN)C[C@H]1C[C@H]3O)C(C)C (stereo partly drawn) [Compound S043, methyl ((4R)-4-((3S,5S,7R,10S,13R,17R)-3-((4-aminobutyl)amino)-7-hydroxy-10,13-dimethylhexadecahydro-1H-cyclopenta[a]phenanthren-17-yl)pentanoyl)-L-valinate] | 200 µM and 128 µg/mL | 107 µM and 61.9 µg/mL | 50 µM and 32 µg/mL | 25 µM and 16 µg/mL | 25 µM and 16 µg/mL |
| COC(=O)[C@H]1CCCN1C(=O)CC[C@@H](C)[C@H]1CCC2C3C(CC[C@@]21C)[C@@]1(C)CC[C@H](NCCCNCCCN)C[C@H]1C[C@H]3O (stereo partly drawn) [Compound S045, methyl ((4R)-4-((3S,5S,7R,10S,13R,17R)-3-((3-((3-aminopropyl)amino)propyl)amino)-7-hydroxy-10,13-dimethylhexadecahydro-1H-cyclopenta[a]phenanthren-17-yl)pentanoyl)-D-prolinate] | 16 µg/mL and 25 µM | 7.77 µg/mL and 12.6 µM | 4 µg/mL and 6.25 µM | 2 µg/mL and 3.13 µM | 4 µg/mL and 6.25 µM |
| COC(=O)[C@@H](NC(=O)CC[C@@H](C)[C@H]1CCC2C3C(CC[C@@]21C)[C@@]1(C)CC[C@H](NCCNCCNCCNCCN)C[C@H]1C[C@H]3O)C(C)C (stereo partly drawn) [Compound S049, methyl ((4R)-4-((3S,5S,7R,10S,13R,17R)-3-((2-((2-((2-((2-aminoethyl)amino)ethyl)amino)ethyl)amino)ethyl)amino)-7-hydroxy-10,13-dimethylhexadecahydro-1H-cyclopenta[a]phenanthren-17-yl)pentanoyl)-L-valinate] | 100 µM and 64 µg/mL | 94.9 µM and 64.2 µg/mL | 100 µM and 64 µg/mL | 50 µM and 32 µg/mL | 100 µM and 64 µg/mL |
